Source: patent publication US20110251238A1, “PPAR AGONIST COMPOSITIONS AND METHODS OF USE” (BIOPHARMED, priority 2008, published 2011)
Converted amounts (≈) assume the structure as drawn. Like-named read-outs stand apart in the source and are kept apart here.

Key:
[1] = system: KB3 (epitheloid lung cancer) cell lines; assay: Cell growth inhibition (cytotoxicity), MTS assay, KB3 cell line; format: cell-based; conditions: Table 3A, MTS assay, triplicate, read-out: KB3 IC50
Protocol: Cell growth inhibition was determined by the MTS assay; the number of viable cells were proportional to the extent of formazan production in the presence or absence of drugs. […]

[2] = system: A549 (human lung adenocarcinoma epithelial); assay: Growth inhibition, MTT colorimetric assay, A549; format: cell-based; conditions: read-out: IC50 A549
Protocol: (§1) A549 (human lung adenocarcinoma epithelial), BxPC3 (pancreatic cancer), LoVo (colon cancer), MCF-7 (epithelial breast cancer), PC3 (human prostate cancer), Hs683 (human glioma), T98G (glioblastoma), U373 (human glioblastoma-astrocytoma), U138 MG (human glioma), epithelial-like), SKMEL28 (human melanoma), B16-F10 (mouse melanoma) and RhTP (rhabdomyosarcoma) cell lines were cultured in presence of the drugs for 3 days. The cytotoxic activity is expressed as (IC50). Inhibition of cell proliferation measured by the MTT colorimetric assay. The values reported in Table 4 are means of six distinct values.

[3] = system: BxPC3 (pancreatic cancer); assay: Growth inhibition, MTT colorimetric assay, BxPC3; format: cell-based, human; conditions: read-out: IC50 BxPC3
Protocol: Cells are cultured at 37° C. in Falcon culture dishes, incubated at 5% CO2 in a suitable culture medium available from Invitrogen Corp. Anti-proliferative activity is determined by an MTT assay (bromide of (3-[4,5-dimethylthiazolium-yl]diphenyltetrazolium)). According to one standard protocol, absorbance is measured at 570 nm (see Dumont et al. (2007) Neoplasia 9: 766-776.
as §1

LoVo (colon cancer) = assay: Growth inhibition, MTT colorimetric assay, LoVo; format: cell-based; conditions: read-out: IC50 LoVo
Protocol: as §1

[4] = system: MCF-7 (epithelial breast cancer); assay: Growth inhibition, MTT colorimetric assay, MCF7; format: cell-based; conditions: read-out: IC50 MCF7
Protocol: as §1

[5] = system: PC3 (human prostate cancer); assay: Growth inhibition, MTT colorimetric assay, PC3; format: cell-based; conditions: read-out: IC50 PC3
Protocol: as §1, with “Compounds that met the criteria for activity on KB3 cells were further tested for drug growth inhibitory activity in 5 carcinoma, 6 glioma and 3 melanoma cell lines, shown in Table 4. A549” for “A549”, “values. The standard errors are <5% as compared to the mean values.” for “values.”

Hs683 (human glioma) = assay: Growth inhibition, MTT colorimetric assay, HS683; format: cell-based; conditions: read-out: IC50 HS683
Protocol: as §1

T98G (glioblastoma) = assay: cells; format: cell-based; conditions: read-out: IC50 T98G
Protocol: as §1

[6] = system: U373 (human glioblastoma-astrocytoma); assay: Growth inhibition, MTT colorimetric assay, U373; format: cell-based; conditions: read-out: IC50 U373
Protocol: as §1, with “Compounds that met the criteria for activity on KB3 cells were further tested for drug growth inhibitory activity in 5 carcinoma, 6 glioma and 3 melanoma cell lines, shown in Table 4. A549” for “A549”, “values. The standard errors are <5% as compared to the mean values.” for “values.”

U138 MG (human glioma) = assay: Growth inhibition, MTT colorimetric assay, U138; format: cell-based; conditions: read-out: IC50 U138
Protocol: as §1, with “Compounds that met the criteria for activity on KB3 cells were further tested for drug growth inhibitory activity in 5 carcinoma, 6 glioma and 3 melanoma cell lines, shown in Table 4. A549” for “A549”, “values. The standard errors are <5% as compared to the mean values.” for “values.”

GL19 = assay: Growth inhibition, MTT colorimetric assay, GL19; format: cell-based; conditions: read-out: IC50 GL19
Protocol: as §1, with “Compounds that met the criteria for activity on KB3 cells were further tested for drug growth inhibitory activity in 5 carcinoma, 6 glioma and 3 melanoma cell lines, shown in Table 4. A549” for “A549”, “values. The standard errors are <5% as compared to the mean values.” for “values.”

RhTP (rhabdomyosarcoma) = assay: Growth inhibition, MTT colorimetric assay, RhTp; format: cell-based; conditions: read-out: IC50 RhTp
Protocol: as §1, with “Compounds that met the criteria for activity on KB3 cells were further tested for drug growth inhibitory activity in 5 carcinoma, 6 glioma and 3 melanoma cell lines, shown in Table 4. A549” for “A549”, “values. The standard errors are <5% as compared to the mean values.” for “values.”

KaKa = assay: Growth inhibition, MTT colorimetric assay, KaKa; format: cell-based; conditions: read-out: IC50 KaKa
Protocol: as §1, with “Compounds that met the criteria for activity on KB3 cells were further tested for drug growth inhibitory activity in 5 carcinoma, 6 glioma and 3 melanoma cell lines, shown in Table 4. A549” for “A549”, “values. The standard errors are <5% as compared to the mean values.” for “values.”

Host = assay: Growth inhibition, MTT colorimetric assay, Host; format: cell-based; conditions: read-out: IC50 Host
Protocol: as §1, with “Compounds that met the criteria for activity on KB3 cells were further tested for drug growth inhibitory activity in 5 carcinoma, 6 glioma and 3 melanoma cell lines, shown in Table 4. A549” for “A549”, “values. The standard errors are <5% as compared to the mean values.” for “values.”

SKMEL28 (human melanoma) = assay: Growth inhibition, MTT colorimetric assay, SKMEL-28; format: cell-based; conditions: read-out: IC50 SKMEL-28
Protocol: as §1, with “Compounds that met the criteria for activity on KB3 cells were further tested for drug growth inhibitory activity in 5 carcinoma, 6 glioma and 3 melanoma cell lines, shown in Table 4. A549” for “A549”, “values. The standard errors are <5% as compared to the mean values.” for “values.”

B16-F10 (mouse melanoma) = assay: Growth inhibition, MTT colorimetric assay, B16F10; format: cell-based; conditions: read-out: IC50 B16F10
Protocol: as §1, with “Compounds that met the criteria for activity on KB3 cells were further tested for drug growth inhibitory activity in 5 carcinoma, 6 glioma and 3 melanoma cell lines, shown in Table 4. A549” for “A549”, “values. The standard errors are <5% as compared to the mean values.” for “values.”

[7] = system: bloodstream forms of T. brucei and T. congolense; assay: Trypanocidal activity in vitro, Alamar Blue assay; format: cell-based, Trypanosoma brucei and T. congolense
Excerpt: Trypanosoma brucei and T. congolense are the causative agents of sleeping sickness in humans and nagana in cattle, respectively. The protozoan parasites live extracellularlyin blood and tissue fluids of mammals and are transmitted by the bite of infected tsetse flies (Glossina spp.). Here the trypanocidal activity against bloodstream forms of T. brucei and T. congolense of bis-8-hydroxy quinoline N-substituted benzylamines derivatives was investigated in vitro, according to methods described in. Steverding et al. (2006) Kinetoplastid Biology and Disease, 5(3): 1-5; Hongmance et al., (2007) Antimicrob. Agents Chemother. 51:1105-1106; and Zhao et al., (2005) Bio-org. Med. Chem.; 13: 3921-3926. Cells were seeded into 96-well tissue culture plates in 200 μl medium containing various concentrations of analogues dissolved in H2O. The controls contained the respective solvent alone. […] After 24 h (trypanosomes) or 43 h (HL-60) incubation, 20 μl of the colorimetric viability indicator Alamar Blue® was added to each well. The cells were incubated for a further 24 h (trypanosomes) or 5 h (HL-60) so that the total incubation time was 48 h. Then, the plates were read on a Dynatech MR5000ELISA reader (Denkendorf, Germany),using a test wavelength of 550 nm and a reference wave length of 630 nm. Each test was set up in duplicate and repeated three times. For comparison, the general cytotoxicity of the compounds was assayed with human myeloid leukaemia HL-60 cells. The anti-trypanosomal activities and the general cytotoxicities of the new analogues were evaluated using the Alamar Blue® assay.

[8] = carcinoma, 3 days with drug, means of six values, unit inferred
[9] = glioma, 3 days with drug, means of six values, unit inferred
[10] = 3 days with drug, means of six values, unit inferred
[11] = melanoma, 3 days with drug, means of six values, unit inferred
[12] = 50% growth inhibition, 48 h total incubation, read-out: GI50
[13] = lowest concentration at which all cells were killed, 48 h total incubation, read-out: MIC
[14] = 72 h, 3 days with drug, means of six values, unit inferred

5,5′-(3,5-bis(trifluorométhyl)benzylazanediyl)bis(méthylène)diquinoléin-8-ol [BPM18,201]
IC50 [1]: 1000 nM
IC50 [2, 8]: 9 nM
IC50 [3, 8]: 79 nM
IC50 (LoVo (colon cancer); [8]): 10 nM
IC50 [4, 8]: 38 nM
IC50 [5, 8]: 71 nM
IC50 (Hs683 (human glioma); [9]): 181 nM
IC50 (T98G (glioblastoma); [9]): 72 nM
IC50 [6, 9]: 96 nM
IC50 (U138 MG (human glioma); [9]): 46 nM
IC50 (GL19; [10]): 2140 nM
IC50 (RhTP (rhabdomyosarcoma); [10]): 47 nM
IC50 (KaKa; [10]): 98 nM
IC50 (Host; [10]): 146 nM
IC50 (SKMEL28 (human melanoma); [11]): > 10000 nM
IC50 (B16-F10 (mouse melanoma); [11]): 76 nM
GI50 [7, 12]: 320 ± 10 nM
MIC [7, 13]: 1 µM

Oc1ccc(CN(Cc2cccs2)Cc2ccc(O)c3ncccc23)c2cccnc12 [BPM18,202, 5,5′-(thiophen-2-ylmethylazanediyl)bis(methylene)diquinolin-8-ol]
IC50 ([1]; KB3): 2 nM
IC50 ([2]; Homo sapiens, A549, 72 h): 27 nM
IC50 ([3]; Homo sapiens, BXPC-3, 72 h): 89 nM
IC50 (LoVo (colon cancer); Homo sapiens, LoVo, 72 h): 40 nM
IC50 ([4]; Homo sapiens, MCF7, 72 h): 35 nM
IC50 ([5]; Homo sapiens, 72 h): 44 nM
IC50 (Hs683 (human glioma); Homo sapiens, Hs 683, 72 h): 35 nM
IC50 (T98G (glioblastoma); Homo sapiens, T98G, 72 h): 88 nM
IC50 ([6]; Homo sapiens, U373 MG, 72 h): 85 nM
IC50 (U138 MG (human glioma); Homo sapiens, U138-MG, 72 h): 44 nM
IC50 (GL19; GL19, 72 h): 3450 nM
IC50 (RhTP (rhabdomyosarcoma); 72 h): 79 nM
IC50 (KaKa; 72 h): 1760 nM
IC50 (Host; 72 h): 1730 nM
IC50 (SKMEL28 (human melanoma); Homo sapiens, SK-MEL-28, 72 h): 4830 nM
IC50 (B16-F10 (mouse melanoma); Mus musculus, B16-F10, 72 h): 86 nM
GI50 ([7]; 48 h): 310 ± 10 nM
MIC ([7]; 48 h): 1 µM (≈ 0.428 µg/mL)

Oc1ccc(CN(Cc2ccccc2)Cc2ccc(O)c3ncccc23)c2cccnc12 [BPM18,725, 5,5′-(benzylazanediyl)bis(methylene)diquinolin-8-ol]
IC50 ([1]; KB3): 20 nM
IC50 ([2]; Homo sapiens, A549, 72 h, carcinoma, 3 days with drug, means of six values, unit inferred): 54 nM
IC50 ([3]; Homo sapiens, BXPC-3, 72 h, carcinoma, 3 days with drug, means of six values, unit inferred): 7440 nM
IC50 (LoVo (colon cancer); Homo sapiens, LoVo, 72 h, carcinoma, 3 days with drug, means of six values, unit inferred): 91 nM
IC50 ([4]; Homo sapiens, MCF7, 72 h, carcinoma, 3 days with drug, means of six values, unit inferred): 97 nM
IC50 ([5]; Homo sapiens, 72 h, carcinoma, 3 days with drug, means of six values, unit inferred): 258 nM
IC50 (Hs683 (human glioma); Homo sapiens, Hs 683, 72 h, glioma, 3 days with drug, means of six values, unit inferred): 76 nM
IC50 (T98G (glioblastoma); Homo sapiens, T98G, 72 h, glioma, 3 days with drug, means of six values, unit inferred): 249 nM
IC50 ([6]; Homo sapiens, U373 MG, 72 h, glioma, 3 days with drug, means of six values, unit inferred): 357 nM
IC50 (U138 MG (human glioma); Homo sapiens, U138-MG, 72 h, glioma, 3 days with drug, means of six values, unit inferred): 95 nM
IC50 (GL19; GL19, 72 h, 3 days with drug, means of six values, unit inferred): 3450 nM
IC50 (RhTP (rhabdomyosarcoma); [14]): 97 nM
IC50 (KaKa; [14]): 2430 nM
IC50 (Host; [14]): 2160 nM
IC50 (SKMEL28 (human melanoma); Homo sapiens, SK-MEL-28, 72 h, melanoma, 3 days with drug, means of six values, unit inferred): > 10000 nM
IC50 (B16-F10 (mouse melanoma); Mus musculus, B16-F10, 72 h, melanoma, 3 days with drug, means of six values, unit inferred): 765 nM
GI50 [7, 12]: 300 ± 10 nM
MIC [7, 13]: 1 µM (≈ 0.422 µg/mL)
